# In patent US20230235374A1, “High Throughput Assays for Detecting Translation Readthrough Inducers” (The Trustees of the University of Pennsylvania, priority 2021, published 2023):
# Columns and labels:
# [1] = tested on: Cy5-hRF1.hRF3.GTP binding to Stop-POST5; assay: smFRET Cy5-hRF1.hRF3.GTP binding to Stop-POST5; design: species or system human; conditions: ataluren 1 mM, FIG. 15C
# Text: Several important results have been obtained with Cy5-heRF1 which further elucidate the mechanism of termination shown in FIGS. 14A and 14B. Cy5-heRF1 forms a catalytically active RFC with unlabeled heRF3, which, when added to the Stop-POST5 complex, generated a transient FRET signal with FKVRQ-tRNA^Gln(Cy3) bound in the P-site (FIGS. 15A and 15B).
# [2] = tested on: RNA of Stop-POST5 and 80S.IRES complexes; assay: LASER-seq mutational profiling of AzAt photoincorporation sites; format: binding, shrimp (Artemia salina); conditions: 300 μM AzAt
# Experimental: RNA-Seq procedures employed closely follow those published (Zinshteyn et al., Nucleic Acids Res, 47, 43-55 (2019); McClary et al., Cell Chem Biol, 24, 605-613 e605 (2017)) except as noted.
# Library preparation. RNA-seq libraries were prepared for PAL, PRE, UV, and NUL samples, as defined in Results, of Stop-POST5 and 80S.IRES complexes, using published procedures (Zinshteyn et al., Nucleic Acids Res, 47, 43-55 (2019); McClary et al., Cell Chem Biol, 24, 605-613 e605 (2017)) with the slight modifications that a 12% 0.13 M Tris/45 mM Borate/2.5 mM EDTA (pH 7.6))—Urea PAGE gel replaced a 10% PAGE gel and the selected RNA fragment size was 40-70 bp rather than 60-70 bp. In brief, RNA was extracted and randomly fragmentated by ZnCl2 (Sigma). After separation on the TBE-Urea PAGE gel, RNA fragments, visualized by ethidium bromide staining (used for all RNA gels) were sliced and extracted from the gel by crushing the gel and vigorously shaking (1400 rpm) at 70° C. in 400 μL of water for 15 min. The 3′ ends were dephosphorylated by T4 Polynucleotide Kinase (New England Biolab). The miRNA cloning linker 2 (5′App/[…]/3′ddC (SEQ ID NO: 11), Integrated DNA Technologies) was used as the universal 3′ linker and pre-adenylated using the 5′ DNA Adenylation Kit (New England Biolab) with the provided protocol. Reverse transcription, self-circularization, and PCR amplification were performed essentially the same as previously described (McClary et al., Cell Chem Biol, 24, 605-613 e605 (2017)). Library sequencing was performed on Illumina NextSeq with single-end mode for up to 75 bp read length.
# Data processing. Sequencing reads were processed by Cutadapt 2.10 (cutadapt.readthedocs.io/en/stable/) to remove 3′ end linkers and then inputted into Shapemapper2 (Busan et al., RNA, 24(2):143-148 (2018)) to count the mutations and effective sequencing reads, using the STAR Aligner mode (Dobin et al., STAR: ultrafast universal RNA-seq aligner. Bioinformatics. 29:15-21 (2013)). The mutation rate of each nucleotide was calculated by dividing the number of the reads containing the mutations by the total number of reads, outputted as N.
# For the PAL sample, the mutation rate fold change was calculated by dividing the mutation rate of the PAL sample by the mutation rate of the PRE sample. The average mutation count was calculated by averaging the number of mutations of the PAL and PRE samples. MA plots (FIG. 3A, FIG. 3B, FIG. 3C and FIG. 3D) were charted by plotting the mutation rate fold change of each nucleotide as a function of the average mutation count of each nucleotide. To determine possibly significant sites of AzAt labeling, the dataset was first screened for points that meet the criteria of a mutation rate fold change ≥1.5 and an average mutation count ≥100. Points meeting these criteria were further screened with Z-factor >0 and p-value <0.05 to determine statistical significance. The Z-factor (z) was calculated using the following equation
# For each complex LASER-Seq was carried out on four types of samples, denoted PAL, PRE, UV, and NUL. PAL samples were prepared by photoaffinity labeling of complexes with 300 μM AzAt, a concentration close to saturating for photoincorporation (FIG. 2C). PRE samples were prepared using separately prephotolyzed AzAt that was re-irradiated in the presence of complexes. UV and NUL samples were prepared in the absence of AzAt by either subjecting complexes to uv irradiation (UV) or just analyzing complexes directly (NUL).
# The sites of modification arising exclusively via nitrene formation on irradiation of AzAt was first identified by the mutation rate fold change of PAL vs. PRE samples, a procedure which corrects for mutation rates arising from noncovalent binding, or covalent photoincorporation of pre-photolyzed AzAt, or uv-induced mutations not related to AzAt (Table 4). The results obtained for the ≥6,006 nucleotides present in these two complexes are presented in FIG. 3A, FIG. 3B, FIG. 3C and FIG. 3D. […]
# 80S.IRES complex = assay: [3H]-AzAt photoaffinity labeling of 80S.IRES complex; format: binding, shrimp (Artemia salina); conditions: FIG. 2C
# Experimental: Photoaffinity labeling with [^3H]-AzAt. Samples in Buffer 4, typically 20 μL, were incubated in the dark (20 min for Stop-POST5 and 80S-IRES complexes, 2 min for release factors) with various concentrations of [^3H]-AzAt at 37° C., transferred to a UV-transparent cuvette which was covered with parafilm to prevent evaporation, and irradiated in a Rayonet photochemical reactor equipped with 300 nm UV lamps for 5 min at room temperature. This was followed by quenching with 2 mM DTT at 37° C. for 5 min under ambient light. The irradiation time gave complete photolysis of the phenyl azide moiety in AzAt. Photolysis was also complete at 5 min in the presence of 1 mM ataluren, ruling out internal filtering effects.
# Stop-POST5 and 80S-IRES complexes. 1 μM solutions of either Stop-POST5 or 80S-S.IRES, determined by A260, were photolabeled by [^3H]-AzAt. The sample was then either directly purified by ultracentrifugation through a sucrose cushion to determine the photoincorporation stoichiometry in the complex, or subjected to phenol/chloroform extraction to determine the photoincorporation stoichiometry in the total RNA. […]
Compound,effect on rate of Cy5-hRF1.hRF3.GTP binding to Stop-POST5 [1],"mutation rate change, 26S-A1437 [2] [fold]","mutation rate change, 26S-A1438 [2] [fold]","mutation rate change, IRES-A142 [2] [fold]","mutation rate change, IRES-G186 [2] [fold]","mutation rate change, IRES-U177 [2] [fold]","mutation rate fold-increase PAL vs. PRE, 18S-A1195 ([2]; in both complexes) [fold]","photoincorporation stoichiometry into 80S.IRES, lower vs. Stop-POST5 (80S.IRES complex) [%]"
O=C(O)c1cccc(-c2noc(-c3ccccc3F)n2)c1 [Ataluren],strongly inhibited,,,,,,,
[N-]=[N+]=Nc1ccc(-c2nc(-c3cccc(C(=O)O)c3)no2)cc1 [AzAt],,1.4,1.3,1.4,2.0,2.4,~9,25
